Measured values reported in paper PMC5045412, “Inhibition of pro-HGF activation by SRI31215, a novel approach to block oncogenic HGF/MET signaling” (Oncotarget, 2016).

Tests used:
Assay type in all cases: cell-based
DiFi cells [1] = experiment: DiFi cells co-cultured with WI38 fibroblasts, immunoblotting; conditions: gefitinib 0.5 μM, WI38 co-culture, SRI 31215 10 μM, JNJ38877605 1 μM
Experimental: Figure 7 Fibroblasts protect DiFi cells from EGFRi in an HGF-dependent manner DiFi cells were treated with gefitinib (0.5 μM) alone or were co-cultured with WI38 fibroblasts (FIB) in the absence or the presence of SRI 31215 (10 μM) or JNJ38877605 (1 μM). The DiFi cell lysates were isolated after 4 or 24 hours as indicated and examined for the expression of pERK and total ERK, pEGFR and total EGFR, cleaved PARP, β-catenin gelsolin and β-actin by immunoblotting.
(§1) Immunoblotting was performed using standard procedures. Membranes were blocked with 5% non-fat milk for 1 hour at RT, and incubated with primary antibodies overnight at 4°C. Primary antibodies used were anti-HGF (R&D Systems), anti-MET, anti-p-MET, anti-p-GAB1, anti-p-AKT, anti-p-ERK1/2, anti-vimentin (Cell Signaling Technology), anti-p-STAT3 (Upstate Cell Signaling Solutions), anti-E-cadherin (BD Transduction Laboratories), anti-β-actin (Sigma). Following washing with TBS-T buffer, membranes were incubated with horseradish peroxidase-conjugated secondary antibodies for 1 hour and then washed with TBS-T. Immunoblots were developed using the chemiluminescent detection system with ECL (Amersham). Protein loading was normalized by probing blots for the expression of β-actin.

DiFi cells [2] = experiment: Viability of DiFi cells with EGFR inhibitors and fibroblast conditioned medium; conditions: gefitinib 0.5 μM or cetuximab 0.5 μg/ml, 72 hours
Experimental: Figure 6 Fibroblasts inhibit the proapoptotic activity of EGFRi in an HGF-dependent manner A. and B. DiFi cells were treated with gefitinib (0.5 μM) or cetuximab (0.5 μg/ml) in the absence or the presence of conditioned medium from fibroblasts and SRI 31215 and JNJ 38877605 as indicated. The viability was determined after 72 hours. In B, fibroblast conditioned medium was incubated with anti HGF or anti-IL1β antibodies. C. and D. DiFi cells were treated with gefitinib (C) or cetuximab (D) in the presence of conditioned medium from fibroblasts and inhibitors of HGF/MET signaling as indicated for 18h. Caspase activity was assessed by the Caspase-Glo 3/7 Assay from Promega.
(§2) Cell titer-glo luminescent cell viability assay kit was purchased from Promega. […] For clonogenic assay, cells were seeded in 6-well plates at a density of 400 cells per well, serum starved overnight, and treated as indicated. After colony formation (8-12 days), cells were stained with crystal violet and the number of colonies was determined using ImageQuantTL (GE Health Care Life Sciences).

DU145 cells [3] = experiment: EMT markers E-cadherin and vimentin (immunofluorescence, immunoblotting); conditions: 24 hours, SRI 31215 10 μM, JNJ 38877605 1 μM; for fibroblast-induced expression of vimentin / fibroblast-induced inhibition of E-cadherin: 18Co conditioned media
Experimental: Figure 3 SRI 31215 inhibits fibroblast-induced EMT in DU145 cells Cells were stimulated with HGF or 18Co conditioned media for 24 hours in the absence or presence of SRI 31215 (10 μM) or JNJ 38877605 (1 μM) as indicated. The expression of E-cadherin was monitored by immunofluorescence A. The levels of E-cadherin and vimentin were also determined by immunoblotting B.
as §1
Cells were seeded at 1×10^3 cells per well in chamber slides. Following overnight serum-starvation, cells were treated with recombinant HGF (10 ng/ml) or conditioned media prepared from fibroblasts (50%) in the presence or absence of SRI 31215 (10 μM) or JNJ 38877605 (1 μM) for 24 hours. Cells were washed with PBS, fixed in ice-cold methanol/acetic acid solution [95:5 (v/v)] for 20 minutes at-20°C and incubated with anti-E-cadherin antibodies overnight at 4°C. Slides were washed with PBS, incubated with Alexa Fluor 568 conjugated secondary antibody for 1 hour at 37°C and examined with a fluorescent microscope.

MET = MET activation and downstream signaling in DU145 cells (immunoblotting); conditions: 30 minutes; for fibroblast-induced MET activation and signaling / MET activation induced by active HGF: serum-starved DU145 cells, SRI 31215 10 μM, JNJ 38877605 1 μM; for fibroblast-induced MET activation and signaling: 18Co conditioned media
Experimental: Figure 2 SRI 31215 inhibits the crosstalk between tumor cells and fibroblasts A. Inhibition of fibroblast-induced oncogenic signaling in tumor cells by SRI 31215. Serum-starved DU145 cells were treated with recombinant HGF or conditioned media from 18Co cells alone or in the presence of SRI 31215 (10 μM) or JNJ 38877605 (1 μM) for 30 minutes. The levels of pMET, pGab1, pAKT, pERK, and pSTAT3 were determined by immunoblotting. Specific bands for pMET and pGab1 are indicated by asterisks. B. Inhibition of fibroblast-induced cell scattering by SRI 31215. Scattering of DU145 cells was induced with recombinant HGF or with conditioned media from 18Co fibroblasts in the presence of SRI 31215 (10 μM) or JNJ 38877605 (1 μM) as indicated. Images were taken 24 hours after treatment.
as §1
Supplementary Figure S2: Dose-dependent inhibition of fibroblast induced MET activation by SRI 31215. DU145 cells were serum-starved and were treated with conditioned medium from 18Co fibroblasts for 30 minutes in the absence or the presence of increasing concentrations of SRI 31215 as indicated. The levels of pERK1/2, pAKT, pSTAT3 and β-actin were determined by […]
(also on this page, place not known: www.impactjournals.com/oncotarget/ Oncotarget, Materials 2016 Supplementary) […]

DU145 cells [4] = experiment: Cell scattering assay; conditions: 24 hours, SRI 31215 10 μM; for fibroblast-induced cell scattering: 18Co conditioned media, JNJ 38877605 1 μM
Experimental: DU145 cells were cultured in 6-well tissue culture plates at a density of 1×10^3 cells per well. After colonies formed (6-8 days), cells were serum-starved overnight and were then treated with recombinant HGF (10 ng/ml) or with conditioned media from 18Co fibroblasts in the presence or absence of SRI 31215 (10 μM) or the MET kinase inhibitor JNJ 38877605 (1 μM) for 24 hours. Cells were washed with PBS and colonies were fixed and stained with 0.5% crystal violet solution in 6% glutaraldehyde.

HT29 cells = experiment: Viability of HT29 cells with EGFR inhibitor; conditions: HT29 cells (HGF-), gefitinib 5 μM; SRI 31215 10 μM, JNJ 38877605 1 μM
Experimental: as §2
Supplementary Figure S3: Inhibition of HGF/MET signaling sensitizes HGF-producing RKO colon cancer cells to gefitinib. A. RKO cells (HGF+) and B. HT29 (HGF-) cells were treated with gefitinib (5 μM) in the absence or the presence of SRI 31215 (10 μM) or JNJ 38877605 (1 μM) as indicated and viability was determined 24 and 72 hours after treatment. # indicates statistical significance compared to samples treated with gefitinib alone as determined by Students’ t-test (p<0.05).
(also on this page, place not known: www.impactjournals.com/oncotarget/ Oncotarget, Materials 2016 Supplementary (HGF +) (HGF -)) […]

Structure (SMILES) | gefitinib-induced cleavage of PARP in the presence of fibroblasts (DiFi cells [1]) | prosurvival activity of fibroblasts (EGFR and ERK phosphorylation under gefitinib) (DiFi cells [1]) | fibroblast-mediated resistance to gefitinib and cetuximab (viability) (DiFi cells [2]) | fibroblast-induced expression of vimentin (DU145 cells [3]) | fibroblast-induced inhibition of E-cadherin (DU145 cells [3]) | fibroblast-induced ERK1/2, AKT and STAT3 activation (MET; DU145 cells, 18Co conditioned medium, increasing concentrations, dose-dependent) | fibroblast-induced MET activation and signaling (MET) | MET activation induced by active HGF (MET) | fibroblast-induced cell scattering (DU145 cells [4]) | scattering induced by active HGF (DU145 cells [4]) | response to EGFRi (HT29 cells) | expression of E-cadherin in HGF-treated cells (DU145 cells [3])
CC1CN(CC2CCN(Cc3ccccc3)CC2)C(=O)N(c2cccc(C(=N)N)c2)C1 (stereo not drawn) [SRI 31215, 3-(3-((1-benzylpiperidin-4-yl)methyl)-5-methyl-2-oxotetrahydropyrimidin-1(2H)-yl)benzimidamide] | restored | blocked | prevent | prevented | prevented | inhibited | prevented | did not prevent | prevented | did not interfere | did not improve | 
Cn1cc(-c2ccc3nnc(C(F)(F)c4ccc5ncccc5c4)n3n2)cn1 [JNJ 38877605, reference compound] | restored | blocked | prevent | prevented | prevented |  | prevented | prevented | prevented |  | did not improve | restored
